Test results: patent EP1965829B1, “ALTERNATIVE OXIDASE AND USES THEREOF” (Tampereen yliopisto, priority 2005, dated 2007)

Experiments:
Flp-In™ T-REx™-293 cells [1] = assay: Respiration of digitonin-permeabilized transduced or transfected cells; format: cell-based, human; conditions: 10 µM n-propyl gallate
Flp-In™ T-REx™-293 cells [2] = assay: Succinate oxidation by digitonin-permeabilized cells, Clark oxygen electrode; format: cell-based, human; conditions: AOX-induced cells
Drosophila mitochondria = format: biochemical, Drosophila melanogaster

With CCCOC(=O)c1cc(O)c(O)c(O)c1 [n-propyl gallate] the “inhibition of residual respiration in the presence of cyanide” value (Flp-In™ T-REx™-293 cells [1]; pWPI-AOX-transduced cells) was “completely inhibited”, the “inhibition of respiration in the presence of cyanide” value (Flp-In™ T-REx™-293 cells [1]; pcDNA5-AOX-transfected cells) was “almost completely inhibited” and the “inhibition of cyanide-resistant succinate oxidation” value (Flp-In™ T-REx™-293 cells [2]; 100 µM propyl gallate added after cyanide) was “fully inhibited”. The “inhibition of oxygen uptake” value (Flp-In™ T-REx™-293 cells [2]; propyl gallate in the absence of cyanide) was 5%, the “effect of AOX inhibitors on respiration” value (Drosophila mitochondria) was “only a small effect” and the “sensitivity of residual cyanide-insensitive respiratory activity to AOX inhibitors” value (Drosophila mitochondria) was “sensitive”.
